Reference: US10844064B2, “sGC stimulators” (Cyclerion Therapeutics, Inc., priority 2014, dated 2020)
Values joined by “and” are separate entries in the source; they are usually repeats but may differ in a detail not shown here. Identical values can stand only once.

Tests used:
[1] = test system: Guinea pig tracheal smooth muscle; assay: Electrical field stimulated guinea pig tracheal smooth muscle contraction (ex vivo); conditions: sub-maximal EFS, cumulative dose response curve, three animals pooled; 95% Cl 0.78-0.94; read-out: IC50 (inhibition of EFS-induced baseline contraction)
Excerpt: Electrical Field Stimulated Guinea Pig Tracheal Smooth Muscle In Vitro (ex vivo) Model for the Assessment of Bronchodilation.
Animals: Guinea pig, Dunkin Hartley, male, Full barrier-bred and certified free of specific micro-organisms on receipt 525-609 g on the experimental day, Harlan UK Ltd. Guinea pigs are housed in a group of 4 in solid-bottomed cages with Gold Flake bedding in a controlled environment (airflow, temperature and humidity). Food (FD1, Special Diet Services) and water are provided ad libitum.
On each experimental day, a guinea pig is killed by exposure to a rising concentration of CO2 and the trachea removed. […] Tissues are washed with Kreb's buffer and stimulated using the previously determined sub-maximal voltage for 1 hour to establish a stable baseline contraction prior to assessment of compound activity.
A cumulative dose response curve (DRC) to each test substance is then performed and changes in smooth muscle contraction measured. The effect of each test substance in each experiment is expressed as a percentage inhibition of the baseline contraction, normalized to the relevant vehicle controls. […] The data from all three experiments are pooled, the DRC plotted, and the test substance potency and efficacy determined.

[2] = biological target: T1, soluble guanylate cyclase (sGC) (Homo sapiens, UniProt Q02108+Q02153); assay: sGC-HEK-cGMP assay with LC/MS detection (Example 2A); format: cell-based; conditions: HEK293 cells, 10 μM DETA-NONOate, 20 min; concentration eliciting 50% of high control response (30 μM Compound Y); read-out: Absolute EC50 (nM) - binned
T1 construct: endogenously expressing soluble guanylate cyclase (sGC); endogenous in cells; host or cells: HEK293
T1 sequence (Q02108 1-690): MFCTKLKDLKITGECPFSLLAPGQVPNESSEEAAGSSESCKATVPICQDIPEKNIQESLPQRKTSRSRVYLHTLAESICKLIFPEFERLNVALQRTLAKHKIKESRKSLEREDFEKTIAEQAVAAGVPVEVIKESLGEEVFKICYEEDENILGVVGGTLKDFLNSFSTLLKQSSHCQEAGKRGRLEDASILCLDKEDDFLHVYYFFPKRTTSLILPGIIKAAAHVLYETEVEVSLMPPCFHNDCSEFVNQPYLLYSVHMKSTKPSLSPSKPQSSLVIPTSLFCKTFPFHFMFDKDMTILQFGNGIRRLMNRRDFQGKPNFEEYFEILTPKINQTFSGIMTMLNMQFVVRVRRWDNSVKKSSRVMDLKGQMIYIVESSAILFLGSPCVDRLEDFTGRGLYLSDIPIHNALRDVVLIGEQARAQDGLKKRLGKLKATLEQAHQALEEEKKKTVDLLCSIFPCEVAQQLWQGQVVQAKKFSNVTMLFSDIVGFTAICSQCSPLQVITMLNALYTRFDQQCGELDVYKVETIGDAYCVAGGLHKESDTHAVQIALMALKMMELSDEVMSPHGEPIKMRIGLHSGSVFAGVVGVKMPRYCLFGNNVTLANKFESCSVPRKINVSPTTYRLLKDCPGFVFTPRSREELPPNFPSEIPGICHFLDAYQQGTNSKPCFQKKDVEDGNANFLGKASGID
T1 sequence (Q02153 1-619): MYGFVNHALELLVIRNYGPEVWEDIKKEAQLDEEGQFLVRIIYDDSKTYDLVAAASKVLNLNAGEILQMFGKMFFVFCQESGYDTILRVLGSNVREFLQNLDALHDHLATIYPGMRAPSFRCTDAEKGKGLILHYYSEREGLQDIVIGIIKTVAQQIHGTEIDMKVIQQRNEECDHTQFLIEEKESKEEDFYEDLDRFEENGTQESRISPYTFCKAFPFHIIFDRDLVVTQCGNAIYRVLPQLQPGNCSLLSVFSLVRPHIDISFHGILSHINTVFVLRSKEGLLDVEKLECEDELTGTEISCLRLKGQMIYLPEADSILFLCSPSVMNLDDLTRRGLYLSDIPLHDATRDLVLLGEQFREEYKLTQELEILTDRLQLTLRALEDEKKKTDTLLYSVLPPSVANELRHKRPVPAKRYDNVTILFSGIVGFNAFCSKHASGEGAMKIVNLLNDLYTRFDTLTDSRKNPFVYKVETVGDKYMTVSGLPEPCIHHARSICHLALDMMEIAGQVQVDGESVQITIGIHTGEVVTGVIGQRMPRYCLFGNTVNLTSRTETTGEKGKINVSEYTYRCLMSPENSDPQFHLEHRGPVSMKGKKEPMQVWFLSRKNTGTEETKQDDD
Experimental: Human embryonic kidney cells (HEK293), endogenously expressing soluble guanylate cyclase (sGC), were used to evaluate the activity of test compounds. Compounds stimulating the sGC enzyme should cause an increase in the intracellular concentration of cGMP. HEK 293 cells were seeded in Dulbecco's Modification of Eagle's Medium supplemented with fetal bovine serum (10% final) and penicillin (100 U/mL)/streptomycin (100 μg/mL) in a 50 μL, volume at a density of 1.5×10^4 cells/well in a poly-D-lysine coated 384 well flat bottom plate. Cells were incubated overnight at 37° C. in a humidified chamber with 5% CO2. Medium was aspirated and cells were washed with 1× Hank's Buffered Saline Salt Solution (50 μL). Cells were then incubated for 15 minutes at 37° C. with 50 μL of a 0.5 mM 3-isobutyl-1-methylxanthine (IBMX) solution. Test article and Diethylenetriamine NONOate (DETA-NONOate) solutions (x μM concentration for test article solution and 10 μM concentration for DETA-NONOate solution; wherein x is one of the following concentrations);
were then added to the assay mixture and the resulting mixture incubated at 37° C. for 20 minutes. After the 20 minute incubation, the assay mixture was aspirated and 10% acetic acid containing 150 ng/mL+3-cGMP (internal standard for LCMS) (50 μL) was added to the cells. The plate was incubated at 4° C. for 30 minutes in the acetic acid solution to stop the reaction and lyse the cells. The plates were then centrifuged at 1,000 g for 3 minutes at 4° C. and the supernatant transferred to a clean reaction plate for LCMS analysis.
cGMP concentrations were determined from each sample using the LCMS conditions below (Table 2) and calculated standard curve. The standard curve was prepared in 10% acetic acid with 150 ng/mL+3cGMP (isotopically labelled cGMP with a weight 3 units higher than wild type) with the following final concentrations of cGMP in ng/mL: 1, 5, 10, 50, 100, 250, 500, 1000, 2000.
(§1) Data were normalized to a high control using the following equation: 100*(Sample—Low Control)/(High Control—Low Control), where the low control is the average of 16 samples treated with 1% DMSO, and the high control is the average of 16 samples treated with 30 μM of Compound Y depicted below. Data were fit using a 4-parameter fit (log(agonist) vs. response variable slope) using GraphPad Prism Software v.5. n=2 for all compounds. […] Compounds failing to elicit a minimum response of 50% are reported as >30 μM. For compounds run in duplicate or n higher than 2, the result herein given is the geometric mean of the several results obtained.

[3] = biological target: T2, sGC enzyme (Homo sapiens, UniProt Q02108+Q02153); assay: cGMP GloSensor cell-based assay, 384-well format (Example 2B); conditions: HEK293 GloSensor 40F cGMP cells, 10 μM DETA-NONOate; 50% of high control response (Compound Y); read-out: sGC_HEK_GloSensor EC50/IC50 Abs (Norm) (nM) Binned
T2 construct: host or cells: HEK293 expressing GloSensor 40F cGMP
T2 sequence (Q02108 1-690): T1 sequence (Q02108 1-690)
T2 sequence (Q02153 1-619): T1 sequence (Q02153 1-619)
Experimental: as §1
Human embryonic kidney cells (HEK293) cells expressing GloSensor™ 40F cGMP (Part No: CS182801, Promega) were used to evaluate the activity of test compounds. The luminescent biosensors (engineered luciferase) that were incorporated into these cells detect cGMP formed by the compounds stimulating the sGC enzyme and emit luminescence.
cGMP GloSensor cells were maintained in Dulbecco's Modification of Eagle's Medium (DMEM) supplemented with fetal bovine serum (FBS) (10% final) and hygromycine (200 μg/ml). The day before assay, cells were plated in DMEM with 10% FBS in a 50 μL volume at a density of 1.5×10^4 cells/well in a poly-D-lysine coated 384-well flat white-bottom plate (Corning Cat No 35661). Cells were incubated overnight at 37° C. in a humidified chamber with 5% CO2. The next day, medium was removed and cells were replaced with 40 μl/well of GloSensor™, […] (Promega Cat No E1291). Cells were treated for 90 minutes at 25° C. to allow the substrate to equilibrate in the cells. Test compounds and Diethylenetriamine NONOate (DETA-NONOate) was diluted to […] in serum-free CO2 independent medium and serally diluted at 4× dilutions to create 5× dose curve from which 10 ul was added to the wells (x uM concentration for test compound solution and 10 μM concentration for DETA-NONOate solution; wherein x is one of the following final concentrations).
For the kinetics studies, luminescense was measured right away for 0.2 sec per well with Envision (Perkin Elmer model No). For endpoint SAR screening, data were collected after 55 min incubation at room temperature.
Data analysis was carried out as indicated above in Example 2A.

[4] = test system: obese mice; conditions: cited from earlier work
[5] = test system: lambs with acute pulmonary hypertension; conditions: inhaled microparticles, awake lambs, cited from earlier work; for pulmonary vasodilation: U-46619 infusion to mean pulmonary arterial pressure 35 mm Hg; for effect on mean arterial pressure / systemic arterial oxygenation / transpulmonary cGMP release: U-46619 infusion

| SMILES | EC50 [2] [nM] | pulmonary vasodilation [5] | effect on mean arterial pressure [5] | transpulmonary cGMP release [5] | also measured |
| --- | --- | --- | --- | --- | --- |
| CC(C)[N+]1(C)[C@@H]2CC[C@H]1CC(OC(=O)C(CO)c1ccccc1)C2 (stereo partly shown) [Ipratropium bromide] | – | – | – | – | IC50 [1]: 0.00086 µM |
| Cc1cc(-c2ncc3c(n2)NC(=O)C3(C)C)nn1Cc1ccccc1F [Compound I-72] | > 1000 | – | – | – | EC50 [3]: < 100 nM and 100 to 1000 nM |
| O=C(O)CCCCN(CCc1cc(F)ccc1OCc1ccc(-c2ccc(C(F)(F)F)cc2)cc1)Cc1ccc(C(=O)O)cc1 [BAY 60-2770] | – | – | – | – | effect on overactive bladder [4]: ameliorates overactive bladder |
| O=C(O)CCCCN(CCc1ccccc1OCc1ccc(CCc2ccccc2)cc1)Cc1ccc(C(=O)O)cc1 [BAY 58-2667] | – | dose dependent pulmonary vasodilation | without significant effect | increased transpulmonary cGMP release | systemic arterial oxygenation [5]: increased systemic arterial oxygenation |
| Cc1cc(-c2nc(N)c3c(n2)NC(=O)C3(C)C)nn1Cc1ccccc1F [Compound I-71, 4-amino-2-(1-(2-fluorobenzyl)-5-methyl-1H-pyrazol-3-yl)-5,5-dimethyl-5H-pyrrolo[2,3-d]pyrimidin-6(7H)-one] | > 1000 | – | – | – | EC50 [3]: 100 to 1000 nM |
| Nc1nc(-c2nn(Cc3ccccc3F)c3ncccc23)nc(N)c1N1CCOCC1 [BAY 41-8543] | – | dose dependent pulmonary vasodilation | without significant effect | increased transpulmonary cGMP release | systemic arterial oxygenation [5]: increased systemic arterial oxygenation |
| CC1(C)C(=O)Nc2nc(-c3cc(-c4ccon4)n(Cc4ccccc4F)n3)nc(NCC(O)(C(N)=O)C(F)(F)F)c21 (stereo not shown) [Compound I-8] | 100 to 1000 | – | – | – | – |
| CC1(C(N)=O)C(=O)Nc2nc(-c3cc(-c4ccon4)n(Cc4ccccc4F)n3)ncc21 (stereo not shown) [Compound I-16] | > 1000 | – | – | – | – |
| Nc1nc(-c2nn(Cc3ccccc3F)c3ncccc23)ncc1C1CC1 [BAY 41-2272] | – | dose dependent pulmonary vasodilation | without significant effect | increased transpulmonary cGMP release | – |
